Drawing on patent US10899732B2, “Substituted benzamides useful as sodium channel blockers” (GENENTECH, INC., priority 2015, dated 2021), this text covers IC50 for one molecule.

For series [1], the target named is T1, hNav1.7 (Homo sapiens, UniProt Q15858).
T1 construct: expressed in transfected cells
Description: Tritiated sulfonamide competitive binding to membranes from cells expressing hNav1.7 and the β1 subunit (LBA). The conditions noted are these: competition with 100 pM [3H]compound, 18 h, room temperature; read-out: Nav1.7 (LBA). The gist of the method: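 Membranes from cells co-expressing hNav1.7 and β1 incubated 18 h at room temperature with 100 pM tritiated sulfonamide and test compound in 100 mM NaCl/20 mM Tris pH 7.4. Non-specific binding defined by 1 μM unlabelled compound; filter-bound radioactivity counted, IC50 from 4-parameter logistic fit.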

Series [2] has as its target T2, NaV1.7 (Homo sapiens, UniProt Q15858).
T2 construct: expression vector containing the full-length cDNA coding for the desired human sodium channel α-subunit; expressed in transfected cells; host or cells: HEK-293
The series can be described thus: Patch voltage clamp electrophysiology assay (EP), NaV1.7 in HEK-293 cells. In kind it is cell-based. Conditions: HEK-293, β1 coexpressed, held at -60 mV (inactivated state). Summed up:
(§1)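 Whole-cell patch clamp at ambient temperature on HEK-293 cells stably expressing human NaV1.5 or NaV1.7 with β1 subunit; CsF internal pH 7.2, NaCl external pH 7.4. Held at −60 mV (full inactivation), 20 ms step to −150 mV, then test pulse; percent current decrease after compound wash-on taken as block.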

Series [3] addresses T3, NaV1.5 (Homo sapiens, UniProt Q14524).
T3 construct: expression vector containing the full-length cDNA coding for the desired human sodium channel α-subunit; expressed in transfected cells; host or cells: HEK-293
Description: Patch voltage clamp electrophysiology assay (EP), NaV1.5 in HEK-293 cells. Conditions: human, pH 7.4; HEK-293, β1 coexpressed, held at -60 mV (inactivated state). In kind it is cell-based. Summed up: as §1

T2 sequence (Q15858 1-1977 isoform Q15858-3): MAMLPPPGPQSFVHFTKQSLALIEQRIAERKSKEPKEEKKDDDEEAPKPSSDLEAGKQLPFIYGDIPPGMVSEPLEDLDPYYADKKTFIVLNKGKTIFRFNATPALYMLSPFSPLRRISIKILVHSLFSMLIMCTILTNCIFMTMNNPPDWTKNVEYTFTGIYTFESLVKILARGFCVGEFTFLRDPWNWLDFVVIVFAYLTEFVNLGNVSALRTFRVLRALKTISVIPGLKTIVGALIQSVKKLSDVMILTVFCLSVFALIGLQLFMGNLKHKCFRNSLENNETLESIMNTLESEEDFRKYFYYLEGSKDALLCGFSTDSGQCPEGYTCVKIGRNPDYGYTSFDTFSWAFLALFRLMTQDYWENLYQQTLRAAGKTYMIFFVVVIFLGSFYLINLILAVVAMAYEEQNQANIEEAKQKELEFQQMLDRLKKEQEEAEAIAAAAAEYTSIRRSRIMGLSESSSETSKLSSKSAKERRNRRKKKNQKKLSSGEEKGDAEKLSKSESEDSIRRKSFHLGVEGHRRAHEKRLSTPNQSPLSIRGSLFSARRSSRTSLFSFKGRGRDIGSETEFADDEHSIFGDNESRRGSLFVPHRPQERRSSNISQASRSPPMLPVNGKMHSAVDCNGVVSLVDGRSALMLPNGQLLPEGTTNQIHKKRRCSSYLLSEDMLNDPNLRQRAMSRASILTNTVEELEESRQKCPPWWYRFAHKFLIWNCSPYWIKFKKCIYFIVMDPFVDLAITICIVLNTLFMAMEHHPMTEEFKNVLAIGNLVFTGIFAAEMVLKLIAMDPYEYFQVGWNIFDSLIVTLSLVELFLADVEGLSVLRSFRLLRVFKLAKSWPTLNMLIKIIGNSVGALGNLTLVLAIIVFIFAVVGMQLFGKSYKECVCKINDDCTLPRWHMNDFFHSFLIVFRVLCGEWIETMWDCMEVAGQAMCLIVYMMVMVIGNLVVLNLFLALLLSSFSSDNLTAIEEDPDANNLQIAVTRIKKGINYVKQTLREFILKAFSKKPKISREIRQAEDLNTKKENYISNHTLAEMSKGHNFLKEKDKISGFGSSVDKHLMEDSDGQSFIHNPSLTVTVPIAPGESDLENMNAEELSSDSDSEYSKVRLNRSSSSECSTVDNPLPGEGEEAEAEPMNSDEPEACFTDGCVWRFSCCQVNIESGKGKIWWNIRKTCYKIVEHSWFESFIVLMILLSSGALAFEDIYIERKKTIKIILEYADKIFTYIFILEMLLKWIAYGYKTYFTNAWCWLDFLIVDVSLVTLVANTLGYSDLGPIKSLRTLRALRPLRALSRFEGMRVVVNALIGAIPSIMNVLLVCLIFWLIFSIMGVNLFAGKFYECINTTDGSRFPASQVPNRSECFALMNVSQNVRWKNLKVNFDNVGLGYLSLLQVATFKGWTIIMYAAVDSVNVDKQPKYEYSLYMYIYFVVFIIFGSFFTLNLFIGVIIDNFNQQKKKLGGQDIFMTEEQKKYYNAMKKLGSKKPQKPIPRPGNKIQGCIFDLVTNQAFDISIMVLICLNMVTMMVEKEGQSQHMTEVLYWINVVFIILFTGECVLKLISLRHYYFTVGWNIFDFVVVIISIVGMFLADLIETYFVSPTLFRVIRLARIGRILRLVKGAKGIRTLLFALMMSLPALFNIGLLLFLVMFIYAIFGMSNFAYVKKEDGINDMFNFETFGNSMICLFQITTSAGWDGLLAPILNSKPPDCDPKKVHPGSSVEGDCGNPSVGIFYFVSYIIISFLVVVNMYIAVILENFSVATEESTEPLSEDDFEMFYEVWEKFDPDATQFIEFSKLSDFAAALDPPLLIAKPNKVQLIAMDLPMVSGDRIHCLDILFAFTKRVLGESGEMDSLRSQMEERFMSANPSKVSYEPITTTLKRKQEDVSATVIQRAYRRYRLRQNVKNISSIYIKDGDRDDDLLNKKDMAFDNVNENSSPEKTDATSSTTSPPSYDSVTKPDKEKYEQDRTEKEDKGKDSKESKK
T2 sequence (Q07699 19-218 partner): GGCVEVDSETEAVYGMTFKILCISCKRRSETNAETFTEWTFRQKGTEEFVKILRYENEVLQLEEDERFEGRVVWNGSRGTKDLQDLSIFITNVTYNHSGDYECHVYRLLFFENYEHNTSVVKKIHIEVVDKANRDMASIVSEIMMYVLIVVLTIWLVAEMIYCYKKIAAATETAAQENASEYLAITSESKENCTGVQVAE
T1 sequence (Q15858 1-1977 isoform Q15858-3): as the sequence (Q15858 1-1977 isoform Q15858-3) above
T1 sequence (Q07699 19-218 partner): as the sequence (Q07699 19-218 partner) above
T3 sequence (Q14524 whole entry): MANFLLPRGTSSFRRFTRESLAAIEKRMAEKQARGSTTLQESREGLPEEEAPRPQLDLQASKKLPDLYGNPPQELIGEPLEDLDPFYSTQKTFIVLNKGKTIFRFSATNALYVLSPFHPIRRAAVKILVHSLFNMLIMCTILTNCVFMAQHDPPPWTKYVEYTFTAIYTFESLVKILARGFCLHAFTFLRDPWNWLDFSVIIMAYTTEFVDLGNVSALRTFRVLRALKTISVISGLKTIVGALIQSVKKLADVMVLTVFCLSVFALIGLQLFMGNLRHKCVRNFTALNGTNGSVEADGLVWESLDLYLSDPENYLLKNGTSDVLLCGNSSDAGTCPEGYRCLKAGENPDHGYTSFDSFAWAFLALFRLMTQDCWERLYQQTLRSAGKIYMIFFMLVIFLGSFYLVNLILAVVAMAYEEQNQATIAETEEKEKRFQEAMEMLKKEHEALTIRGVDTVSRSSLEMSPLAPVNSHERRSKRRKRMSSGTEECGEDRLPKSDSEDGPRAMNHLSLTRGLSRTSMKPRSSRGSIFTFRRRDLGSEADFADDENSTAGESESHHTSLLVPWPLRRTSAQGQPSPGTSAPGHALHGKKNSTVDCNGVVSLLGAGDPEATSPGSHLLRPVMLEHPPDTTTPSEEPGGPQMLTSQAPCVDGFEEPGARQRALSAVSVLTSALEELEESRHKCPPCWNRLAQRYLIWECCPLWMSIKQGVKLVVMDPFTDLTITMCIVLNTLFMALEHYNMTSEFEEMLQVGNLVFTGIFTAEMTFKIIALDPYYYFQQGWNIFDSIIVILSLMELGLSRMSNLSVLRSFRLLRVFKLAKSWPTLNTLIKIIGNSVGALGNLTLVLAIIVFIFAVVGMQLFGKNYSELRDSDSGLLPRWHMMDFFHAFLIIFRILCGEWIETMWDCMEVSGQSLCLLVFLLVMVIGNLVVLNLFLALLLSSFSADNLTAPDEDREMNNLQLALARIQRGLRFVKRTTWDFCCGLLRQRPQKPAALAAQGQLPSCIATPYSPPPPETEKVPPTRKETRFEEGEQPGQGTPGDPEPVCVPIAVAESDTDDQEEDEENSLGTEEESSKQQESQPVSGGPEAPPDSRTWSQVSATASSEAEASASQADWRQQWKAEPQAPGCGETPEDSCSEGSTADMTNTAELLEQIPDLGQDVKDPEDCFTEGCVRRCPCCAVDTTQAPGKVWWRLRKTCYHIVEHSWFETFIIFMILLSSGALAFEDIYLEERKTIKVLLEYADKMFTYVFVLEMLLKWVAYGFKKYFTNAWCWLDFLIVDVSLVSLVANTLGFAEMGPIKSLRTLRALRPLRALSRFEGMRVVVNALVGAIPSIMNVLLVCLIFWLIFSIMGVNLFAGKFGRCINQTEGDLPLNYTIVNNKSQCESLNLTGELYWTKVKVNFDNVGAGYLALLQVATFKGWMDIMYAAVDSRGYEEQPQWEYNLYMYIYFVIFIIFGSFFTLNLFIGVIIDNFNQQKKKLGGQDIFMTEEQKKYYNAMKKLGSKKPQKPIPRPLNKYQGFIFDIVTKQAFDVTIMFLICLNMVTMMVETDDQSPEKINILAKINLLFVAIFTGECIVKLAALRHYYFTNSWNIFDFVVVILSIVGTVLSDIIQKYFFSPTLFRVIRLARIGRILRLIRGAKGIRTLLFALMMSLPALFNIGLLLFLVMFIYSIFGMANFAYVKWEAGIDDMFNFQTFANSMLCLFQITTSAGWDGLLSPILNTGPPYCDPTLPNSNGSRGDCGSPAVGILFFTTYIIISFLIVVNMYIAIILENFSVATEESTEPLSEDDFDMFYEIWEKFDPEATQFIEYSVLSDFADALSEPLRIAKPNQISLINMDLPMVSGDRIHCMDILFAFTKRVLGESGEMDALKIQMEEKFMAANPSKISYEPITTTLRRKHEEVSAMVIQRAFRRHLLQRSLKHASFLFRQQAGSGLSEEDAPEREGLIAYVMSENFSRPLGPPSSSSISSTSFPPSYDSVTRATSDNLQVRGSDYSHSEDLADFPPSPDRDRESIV

Take `Cc1nn(-c2cnc(OCC(C)C)c(Cl)c2)c2cc(F)c(C(=O)NS(=O)(=O)N3CCC3)cc12` [Example 42, N-(azetidin-1-ylsulfonyl)-1-(5-chloro-6-isobutoxypyridin-3-yl)-6-fluoro-3-methyl-1H-indazole-5-carboxamide]: the values for the IC50 in series [1], in series [2] and in series [3] were 0.007 µM, 0.071 µM and no less than 30 µM, respectively.
